Laboratory results: paper PMC8673672, “Synthesis and evaluation of radiogallium-labeled long-chain fatty acid derivatives as myocardial metabolic imaging agents” (PLoS ONE, 2021)
Values belong to the molecule of their own block, whether it stands above or below them.

Columns and labels:
[1] = Biodistribution study in normal mice; format: in vivo; conditions: ddY mice, i.v.
Method: The animal experimental protocols used were approved by the Committee on Animal Experimentation of Kanazawa University (AP-204165). All experiments with animals were conducted in strict accordance with the Guidelines for the Care and Use of Laboratory Animals of Kanazawa University. Mice were housed together in individually ventilated cages with three mice per cage. The animals were housed at 23°C with a 12 h light/dark schedule with free access to a standardized mouse diet and provided drinking water ad libitum water. Autoclaved wood chips were applied as bedding material. The behavior of the mice during the experimental period was normal. Seventy-five ddY mice (male; 6-week-old; 29–33 g) were purchased from Japan SLC Inc., Hamamatsu, Japan. The mice were randomly divided into five groups (n = 15 mice per group) with five different time points for each group (n = 3 mice per time point).
Radiotracers, [^67Ga]5, [^67Ga]6, [^67Ga]7, or [^67Ga]8, in saline containing 5% ethanol and 0.1% tween-80, or [^123I]BMIPP (74 kBq/100 μL, respectively) was intravenously injected into mice via the tail. The ddY mice were sacrificed by decapitation at 0.5, 2, 5, 20, and 60 min. Tissues of interest were removed and weighed. The radioactivity of the tissues was determined using an auto well gamma counter. The data were expressed as percent injected dose per gram tissue (%ID/g).

[2] = design: method as in PMID 31869735; conditions: Ga complex; cited from earlier work

Blood radioactivity ([1]; 0.5 min after injection): 20.30 (1.55) %ID/g
Bone radioactivity ([1]; 0.5 min after injection): 2.63 (0.33) %ID/g
Brain radioactivity ([1]; 0.5 min after injection): 0.51 (0.11) %ID/g
Kidney radioactivity ([1]; 0.5 min after injection): 5.21 (0.42) %ID/g
Large intestine radioactivity ([1]; 0.5 min after injection): 0.42 (0.07) %ID/g
Liver radioactivity ([1]; 0.5 min after injection): 12.44 (2.40) %ID/g
Lung radioactivity ([1]; 0.5 min after injection): 24.09 (4.19) %ID/g
Muscle radioactivity ([1]; 0.5 min after injection): 2.85 (0.69) %ID/g
Pancreas radioactivity ([1]; 0.5 min after injection): 2.43 (0.68) %ID/g
Small intestine radioactivity ([1]; 0.5 min after injection): 0.91 (0.15) %ID/g
Spleen radioactivity ([1]; 0.5 min after injection): 4.91 (1.27) %ID/g
Stomach radioactivity ([1]; 0.5 min after injection): 0.60 (0.11) %ID/organ
Heart uptake ([1]; 0.5 min after injection (initial myocardial uptake)): 21.36 (2.73) %ID/g
Blood radioactivity ([1]; 2 min after injection): 6.01 (0.74) %ID/g
Bone radioactivity ([1]; 2 min after injection): 1.97 (0.03) %ID/g
Brain radioactivity ([1]; 2 min after injection): 0.22 (0.03) %ID/g
Heart uptake ([1]; 2 min after injection): 27.60 (3.15) %ID/g
Kidney radioactivity ([1]; 2 min after injection): 5.27 (0.61) %ID/g
Large intestine radioactivity ([1]; 2 min after injection): 0.68 (0.14) %ID/g
Liver radioactivity ([1]; 2 min after injection): 21.35 (0.89) %ID/g
Lung radioactivity ([1]; 2 min after injection): 15.88 (1.94) %ID/g
Muscle radioactivity ([1]; 2 min after injection): 3.24 (0.49) %ID/g
Pancreas radioactivity ([1]; 2 min after injection): 6.11 (1.90) %ID/g
Small intestine radioactivity ([1]; 2 min after injection): 1.33 (0.23) %ID/g
Spleen radioactivity ([1]; 2 min after injection): 3.76 (1.18) %ID/g
Stomach radioactivity ([1]; 2 min after injection): 0.70 (0.17) %ID/organ
Blood radioactivity ([1]; 5 min after injection): 6.75 (1.07) %ID/g
Bone radioactivity ([1]; 5 min after injection): 2.29 (0.27) %ID/g
Brain radioactivity ([1]; 5 min after injection): 0.25 (0.03) %ID/g
Heart uptake ([1]; 5 min after injection): 28.03 (5.37) %ID/g
Kidney radioactivity ([1]; 5 min after injection): 5.93 (1.23) %ID/g
Large intestine radioactivity ([1]; 5 min after injection): 0.66 (0.11) %ID/g
Liver radioactivity ([1]; 5 min after injection): 16.33 (4.41) %ID/g
Lung radioactivity ([1]; 5 min after injection): 16.87 (3.08) %ID/g
Muscle radioactivity ([1]; 5 min after injection): 3.42 (1.06) %ID/g
Pancreas radioactivity ([1]; 5 min after injection): 5.66 (4.30) %ID/g
Small intestine radioactivity ([1]; 5 min after injection): 1.39 (0.27) %ID/g
Spleen radioactivity ([1]; 5 min after injection): 3.09 (1.26) %ID/g
Stomach radioactivity ([1]; 5 min after injection): 0.95 (0.28) %ID/organ
Blood radioactivity ([1]; 20 min after injection): 10.84 (0.20) %ID/g
Bone radioactivity ([1]; 20 min after injection): 2.66 (0.22) %ID/g
Brain radioactivity ([1]; 20 min after injection): 0.43 (0.07) %ID/g
Heart uptake ([1]; 20 min after injection): 23.41 (3.39) %ID/g
Kidney radioactivity ([1]; 20 min after injection): 8.03 (0.09) %ID/g
Large intestine radioactivity ([1]; 20 min after injection): 1.20 (0.04) %ID/g
Liver radioactivity ([1]; 20 min after injection): 6.54 (0.43) %ID/g
Lung radioactivity ([1]; 20 min after injection): 16.21 (1.50) %ID/g
Muscle radioactivity ([1]; 20 min after injection): 3.51 (0.21) %ID/g
Pancreas radioactivity ([1]; 20 min after injection): 9.80 (3.25) %ID/g
Small intestine radioactivity ([1]; 20 min after injection): 1.97 (0.11) %ID/g
Spleen radioactivity ([1]; 20 min after injection): 1.73 (0.55) %ID/g
Stomach radioactivity ([1]; 20 min after injection): 1.06 (0.05) %ID/organ
Blood radioactivity ([1]; 60 min after injection): 10.38 (2.03) %ID/g
Bone radioactivity ([1]; 60 min after injection): 2.42 (0.33) %ID/g
Brain radioactivity ([1]; 60 min after injection): 0.39 (0.04) %ID/g
Heart uptake ([1]; 60 min after injection): 20.92 (3.67) %ID/g
Kidney radioactivity ([1]; 60 min after injection): 6.24 (0.62) %ID/g
Large intestine radioactivity ([1]; 60 min after injection): 1.20 (0.15) %ID/g
Liver radioactivity ([1]; 60 min after injection): 4.34 (0.61) %ID/g
Lung radioactivity ([1]; 60 min after injection): 13.11 (3.05) %ID/g
Muscle radioactivity ([1]; 60 min after injection): 3.87 (0.80) %ID/g
Pancreas radioactivity ([1]; 60 min after injection): 8.04 (3.89) %ID/g
Small intestine radioactivity ([1]; 60 min after injection): 1.88 (0.29) %ID/g
Spleen radioactivity ([1]; 60 min after injection): 1.68 (0.81) %ID/g
Stomach radioactivity ([1]; 60 min after injection): 1.06 (0.17) %ID/organ
SMILES: CC(CCCCCCCCCCCCc1ccc([123I])cc1)CC(=O)O (stereo not drawn) [[^123I]BMIPP, β-methyl [^123I]iodophenyl-pentadecanoic acid]

SMILES: O=C([O-])CN1CCN(CC(=O)[O-])CCN(CC(=O)O)CCN(CC(=O)[O-])CC1.[Ga+3] [Ga-DOTA]
Stability constant (log K) [2]: 21.3
